Assay results taken from article PMC12240781 (Frontiers in Pharmacology, 2025).

Tests used:
[1] = pH 5.8, Henderson-Hasselbalch equation
[2] = cited from earlier work
[3] = in vitro; conditions: for Papp at 6 h, 25 μg/mL: PAMPA; for Increase in Papp: with probiotic bacteria vs control without probiotics
Procedure: Hydrophobic MultiScreen PVDF microfiltration plates with 96 wells and a pore diameter of 0.45 μm (Millipore, USA) were used as acceptor plates and as supports for the artificial membrane. Each well of the acceptor plate was impregnated with 6 μL of a 2% lecithin solution in n-dodecane, and after solvent evaporation, an artificial membrane was formed. To the corresponding wells of the acceptor plate, 200 μL of PBS buffer (pH 7.4) was added, while 300 μL of the tested compound solution in respective buffer was added to the wells of the donor plate (MultiScreen Transport Receiver Plate, Millipore, USA). All analyses were conducted in triplicate at three different pH values in the donor compartment, while the pH value in the acceptor compartment was always 7.4. The donor plate was aligned with the acceptor plate to initiate incubation. Incubation of samples was performed at 37°C in a sealed PAMPA system to minimize oxygen exposure. […] Before HPLC injection, protein precipitation was achieved by diluting a 50 μL sample from the donor compartment fivefold with acetonitrile, followed by centrifugation at 15,000 rpm for 10 min at +4°C, as described by Đanić et al. ([Ðanić et al., 2019]). Subsequently, 100 μL of the supernatant was directly injected into the HPLC system.
After determining the concentrations of the tested compounds in the donor and acceptor wells, apparent permeability coefficients (Papp) were calculated and expressed in units of cm/s based on the equation: Papp=C×−ln 1−Ca/Ceq where C is a correction factor calculated as: C=Vd×Va/Vd+Va×S×t
The equilibrium drug concentration (Ceq) was determined using mass balance: Ceq=Cd×Vd+Ca×Va/Vd+Va
In these equations, Ca represents the drug concentration in the acceptor compartment after 6 h, Ceq is the equilibrium drug concentration determined based on mass balance, Va and Vd denote the volumes of the acceptor and donor compartments, respectively, measured in milliliters, t represents the time period over which permeability was assessed, expressed in seconds, and S refers to the membrane surface area in square centimeters. The surface area of the artificial membrane was calculated to be 0.24 cm^2, as the acceptor filter membrane plates have a surface area of 0.32 cm^2 and a porosity of 75%, according to the manufacturer’s data.
Sample analysis was performed using high-performance liquid chromatography (HPLC; Dionex) with a diode array detector (DAD). […] Briefly, the chromatographic analysis was performed using a reverse-phase Zorbax Eclipse Plus C18 column (150 mm × 2.1 mm, 5 μm; Agilent Technologies, USA), coupled with a Zorbax Extend C18 guard column (12.5 mm × 2.1 mm, 5 μm; Agilent Technologies, USA). During the analysis, the column temperature was maintained at a constant 25°C, and the injection volume was 20 μL. Elution was performed using an isocratic program, with the mobile phase consisting of 50% AcN and 50% phosphate buffer adjusted to pH 3.3 with orthophosphoric acid, with the addition of 0.5 mL triethylamine as a column modifier. The total analysis time was 5 min, with a constant flow rate of the mobile phase at 0.3 mL/min. […] The eluate was monitored using a UV/DAD detector at a wavelength of 276 nm.

## Cn1cnc([N+](=O)[O-])c1Sc1ncnc2nc[nH]c12 [azathioprine]
[1]
  Ionization percentage: 0.84%
[2]; low solubility and low permeability, ref Bocci et al., 2022
  Biopharmaceutics Classification System (BCS) class: Class IV
[2]; ref Hansch et al., 1996
  logP: 0.1
[3]; Permeability [Papp x10^−7] [cm/s]
  Papp at 6 h, 25 μg/mL: 0.193 ± 0.014 ×10⁻⁶ cm/s
[3]; Permeability class across the PAMPA membrane
  Papp at 6 h, 25 μg/mL: < 1 ×10⁻⁶ cm/s
[3]; pH 7.4, Permeability [Papp x10^−7] [cm/s]
  Papp at 6 h, 25 μg/mL: 0.134 ± 0.005 ×10⁻⁶ cm/s
[3]; incubated with probiotics, 6 h
  Rise of azathioprine levels in the acceptor compartment: less than 1%
[3]; pH 5.8
  Increase in Papp: 2.2 fold
[3]; pH 6.5
  Increase in Papp: 1.9 fold
[3]; pH 7.4
  Increase in Papp: 2.5 fold
[3]; with probiotics vs control without probiotics (AP vs. A), pH 5.8, 6 h
  Increase of azathioprine concentration in the acceptor compartment: 18%
[3]; with probiotics vs control without probiotics (AP vs. A), pH 7.4, 6 h
  Increase of azathioprine concentration in the acceptor compartment: 57%
[3]; with probiotics vs control without probiotics, pH 6.5, 6 h
  Increase of azathioprine concentration in the acceptor compartment: 26%
